Among the test systems are ACHN renal; SF-539 CNS; UO-31 renal; KM20L2 colon; IGROV1 ovarian; XF 498 CNS; MALME-3M melanoma; MCF7 breast; OVCAR-3 ovarian; T-47D breast; MDA-N; DU-145 prostate; PC-3 prostate; 786-0 renal.
Holding throughout (test): NCI-60 cell line screen, 48 h

The values below come from PubChem BioAssay (NCI).

SMILES strings stand for the structures.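 All cell lines were grown in 96-well plates and treated with compound for 48 hours. Here, GI50 denotes the concentration required for 50% inhibition of growth. At the TGI there is no net growth.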

Consider `C=CC(=O)N1CCN(c2nc(OC[C@@H]3CCCN3C)nc3c2CCN(c2cccc4cccc(C)c24)C3)C[C@@H]1CC#N`, for which the GI50 is 0.953 µM with ACHN renal, 1.63 µM in the experiment with SF-539 CNS and 1.28 µM with UO-31 renal. Further, the values for the TGI in the experiment with ACHN renal, in the experiment with SF-539 CNS and in the experiment with UO-31 renal were 2.14 µM, 3.04 µM and 2.54 µM, respectively.
Take `c1ccc(C(c2ccccc2)[P+](c2ccccc2)(c2ccccc2)c2ccccc2)cc1`: the TGI in the experiment with KM20L2 colon came out at 11.8 µM; in the experiment with IGROV1 ovarian, 8.64 µM; in the experiment on XF 498 CNS, 0.737 µM; with SF-539 CNS it was 6.31 µM; in the experiment with MALME-3M melanoma, 14.7 µM; in the experiment with UO-31 renal, 7.95 µM. Also, the TGI was 11.9 µM with MCF7 breast and 3 µM in the experiment with OVCAR-3 ovarian.
For the molecule `CCCCCCCCCCCCCCCC[N+](C)(C)CCN(Cc1ccc(OC)cc1)c1ncccn1`, the GI50 in the experiment on ACHN renal is 8.54 µM; in the experiment on T-47D breast it was 1.28 µM; with UO-31 renal, 5.65 µM; in the experiment with OVCAR-3 ovarian, 1.14 µM. Moreover, the TGI in the experiment on ACHN renal amounted to 32.9 µM; in the experiment with T-47D breast it was 2.98 µM; in the experiment with UO-31 renal, 52.9 µM; in the experiment on OVCAR-3 ovarian, 3.32 µM.
With `COc1ccccc1N1C(Cl)C(=O)C1c1c[nH]c2ccccc12` (stereo not given), the TGI in the experiment on KM20L2 colon, in the experiment on IGROV1 ovarian, with XF 498 CNS, in the experiment with SF-539 CNS, with UO-31 renal and with OVCAR-3 ovarian was over 100 µM each time.
`Nc1ccc(C2NC(=O)Cc3c2ccc2ccccc32)cc1` (stereo not given): the TGI with ACHN renal, in the experiment on IGROV1 ovarian, in the experiment with SF-539 CNS, with T-47D breast, in the experiment with MDA-N and in the experiment with DU-145 prostate was over 100 µM throughout. Also, the TGI in the experiment with MALME-3M melanoma, in the experiment with UO-31 renal, in the experiment on MCF7 breast, in the experiment on PC-3 prostate and with OVCAR-3 ovarian was over 100 µM throughout.
As to `Cc1ccc2cc3c(ccc4ccccc43)c3c2c1CC3`, the TGI with ACHN renal, in the experiment with IGROV1 ovarian, with SF-539 CNS, with 786-0 renal, in the experiment with T-47D breast and with MDA-N was over 100 µM in each case. Moreover, the TGI was over 100 µM with DU-145 prostate; over 100 µM in the experiment with MALME-3M melanoma; over 100 µM in the experiment on UO-31 renal; over 18.3 µM in the experiment on MCF7 breast; over 100 µM in the experiment on PC-3 prostate; over 100 µM with OVCAR-3 ovarian. Moreover, in the experiment on MALME-3M melanoma, the GI50 was over 100 µM.
As for `COc1ccc2oc(=O)cc(C)c2c1`, the TGI in the experiment on ACHN renal, in the experiment with IGROV1 ovarian, with SF-539 CNS, in the experiment on 786-0 renal, in the experiment on T-47D breast and in the experiment with MDA-N was over 100 µM throughout. The TGI in the experiment on DU-145 prostate, with MALME-3M melanoma, in the experiment on UO-31 renal, with MCF7 breast, in the experiment on PC-3 prostate and with OVCAR-3 ovarian was over 100 µM throughout.
For the molecule `O=C(O)C(O)Cc1ccccn1` (stereo not given), the TGI in the experiment on ACHN renal, with IGROV1 ovarian, with T-47D breast, in the experiment with DU-145 prostate, in the experiment on MALME-3M melanoma and with UO-31 renal was over 100 µM each time. For the same molecule, the TGI in the experiment on MCF7 breast, in the experiment on PC-3 prostate and in the experiment on OVCAR-3 ovarian was over 100 µM in each case.
Consider `CCCCNc1c(CN)cnc2cc(Cl)ccc12`, for which the TGI came to 58.7 µM in the experiment on ACHN renal; 34.4 µM in the experiment on IGROV1 ovarian; 40.2 µM in the experiment on 786-0 renal; 44.3 µM in the experiment on T-47D breast; 39.3 µM with MDA-N; 86.8 µM in the experiment with DU-145 prostate. Besides, the TGI in the experiment on MALME-3M melanoma was found to be 34 µM; in the experiment on MCF7 breast, 27.6 µM; in the experiment with PC-3 prostate, 43.1 µM; in the experiment on OVCAR-3 ovarian, 32.3 µM.
For the molecule `CN(C)CCCNc1ncnc2nc[nH]c12`, the TGI with ACHN renal, in the experiment with IGROV1 ovarian, in the experiment with 786-0 renal, in the experiment on T-47D breast, in the experiment on MDA-N and in the experiment on DU-145 prostate was over 100 µM throughout. In addition, the TGI with MALME-3M melanoma, in the experiment with UO-31 renal, in the experiment on MCF7 breast, in the experiment on PC-3 prostate and in the experiment with OVCAR-3 ovarian was over 100 µM throughout.
On to `NC(=O)NO`, for which the TGI was 2060 µM in the experiment on ACHN renal; 1700 µM in the experiment with KM20L2 colon; over 2020 µM with IGROV1 ovarian; 1850 µM with XF 498 CNS; 1440 µM in the experiment with SF-539 CNS; 1770 µM in the experiment on 786-0 renal. For the same molecule, the TGI with T-47D breast is over 2500 µM; in the experiment with MDA-N, over 2500 µM; in the experiment with DU-145 prostate it was over 2500 µM; with MALME-3M melanoma, 2480 µM; in the experiment with UO-31 renal it was 1870 µM; in the experiment on MCF7 breast it was over 2460 µM. Also, the TGI in the experiment on PC-3 prostate was over 2500 µM; with OVCAR-3 ovarian, 2500 µM.
In the case of `FC(F)(F)C(C1=NC(C(F)(F)F)(C(F)(F)F)N=C(N2CCOCC2)O1)C(F)(F)F`, the TGI was 49.3 µM in the experiment on ACHN renal; 57.1 µM in the experiment with IGROV1 ovarian; 97.3 µM in the experiment on SF-539 CNS; 89.4 µM in the experiment with T-47D breast; 53.8 µM in the experiment with MDA-N; over 100 µM with DU-145 prostate. In addition, the TGI in the experiment with UO-31 renal was over 100 µM; in the experiment with PC-3 prostate, 63.2 µM; in the experiment on OVCAR-3 ovarian it was over 100 µM.
With `O=C(c1ccccc1)[C@H]1Nc2ccc(Cl)cc2[C@H]2OCCC[C@@H]12`, the TGI in the experiment on ACHN renal is 93.5 µM; with KM20L2 colon it was 39.4 µM; in the experiment with IGROV1 ovarian, over 100 µM; with XF 498 CNS it was 33.6 µM; in the experiment with MALME-3M melanoma, 48.1 µM; with UO-31 renal, 33 µM. In the experiment with OVCAR-3 ovarian, this molecule came in with a TGI of 30.7 µM.
As to `CC(=O)Oc1ccc2c(C)cc(=O)oc2c1`, the TGI in the experiment with ACHN renal, in the experiment on IGROV1 ovarian, in the experiment on SF-539 CNS, with 786-0 renal, in the experiment with T-47D breast and in the experiment with MDA-N was over 100 µM each time. Besides, the TGI with DU-145 prostate, in the experiment on MALME-3M melanoma, in the experiment on UO-31 renal, in the experiment with MCF7 breast, in the experiment on PC-3 prostate and in the experiment on OVCAR-3 ovarian was over 100 µM throughout.
Turning to `O=C(O)CSCC(=O)O`, the TGI in the experiment on ACHN renal, with IGROV1 ovarian, in the experiment with 786-0 renal, in the experiment with MDA-N, with DU-145 prostate and with MALME-3M melanoma was over 100 µM in each case. Moreover, the TGI in the experiment with UO-31 renal, in the experiment with PC-3 prostate and with OVCAR-3 ovarian was over 100 µM each time.
Take `CS/C(=N\C(=S)Nc1ccccc1)Nc1ccccc1`: the TGI is 70.7 µM in the experiment with ACHN renal; over 100 µM with KM20L2 colon; 97.6 µM in the experiment on IGROV1 ovarian; 60.4 µM in the experiment on MALME-3M melanoma; 43.1 µM with UO-31 renal; 48 µM with OVCAR-3 ovarian.
For the molecule `C=CCOC1OC(CS(=O)(=O)O)C(O)C(O)C1O` (stereo not given), the TGI in the experiment on IGROV1 ovarian, with T-47D breast, in the experiment with MDA-N, in the experiment on DU-145 prostate, with MALME-3M melanoma and with UO-31 renal was over 100 µM throughout. Also, the TGI in the experiment on MCF7 breast, in the experiment with PC-3 prostate and in the experiment on OVCAR-3 ovarian was over 100 µM each time.
